Results from the NIST ThermoML archive (doi:10.1021/je034007i).
Numbers after ± are expanded uncertainties.

Experiments:
[1] = 308.15 K; 101.33 kPa; Liquid; vibrating tube
[2] = excess molar enthalpy (molar enthalpy of mixing); xn = mol fraction of the nth substance listed; conditions: 308.15 K, 101.3 kPa, Liquid

C[S+](C)[O-] [dimethyl sulfoxide]
Conditions	mass density [kg/m3]
[1]	1085.5 ± 0.55

OCCOCCO [diethylene glycol]
Conditions	mass density [kg/m3]
[1]	1105.65 ± 0.56

OCCOCCOCCO [triethylene glycol]
Conditions	mass density [kg/m3]
[1]	1112.1 ± 0.56

CC(O)CO (configuration not stated) [1,2-propanediol]
Conditions	mass density [kg/m3]
[1]	1026.15 ± 0.26

OCCOCCO [diethylene glycol] + C[S+](C)[O-]
[2]
Conditions	excess molar enthalpy [kcal/mol]
x1 = 0.0303	-0.0251 ± 0.000765
x1 = 0.0588	-0.0476 ± 0.00112
x1 = 0.0857	-0.0664 ± 0.00143
x1 = 0.1111	-0.0834 ± 0.00172
x1 = 0.1579	-0.109 ± 0.00217
x1 = 0.2	-0.128 ± 0.00263
x1 = 0.2727	-0.15 ± 0.00287
x1 = 0.3332	-0.159 ± 0.00311
x1 = 0.4285	-0.162 ± 0.00311
x1 = 0.5295	-0.154 ± 0.00287
x1 = 0.6	-0.145 ± 0.00287
x1 = 0.6923	-0.124 ± 0.00239
x1 = 0.75	-0.112 ± 0.00222
x1 = 0.8182	-0.0909 ± 0.00186
x1 = 0.8571	-0.0762 ± 0.0016
x1 = 0.9	-0.0599 ± 0.00134
x1 = 0.9474	-0.0347 ± 0.000908

OCCOCCOCCO [triethylene glycol] + C[S+](C)[O-]
[2]
Conditions	excess molar enthalpy [kcal/mol]
x1 = 0.0217	-0.0287 ± 0.000813
x1 = 0.0425	-0.0537 ± 0.00122
x1 = 0.0625	-0.0751 ± 0.00158
x1 = 0.0816	-0.0944 ± 0.00191
x1 = 0.1176	-0.125 ± 0.00239
x1 = 0.1509	-0.15 ± 0.00287
x1 = 0.2104	-0.181 ± 0.00335
x1 = 0.2621	-0.198 ± 0.00382
x1 = 0.3477	-0.215 ± 0.00406
x1 = 0.4444	-0.214 ± 0.00406
x1 = 0.516	-0.207 ± 0.00382
x1 = 0.6153	-0.186 ± 0.00359
x1 = 0.6807	-0.168 ± 0.00311
x1 = 0.7618	-0.137 ± 0.00263
x1 = 0.81	-0.117 ± 0.00232
x1 = 0.8648	-0.0917 ± 0.00186
x1 = 0.9275	-0.0526 ± 0.0012

CC(O)CO (configuration not stated) [1,2-propanediol] + C[S+](C)[O-]
[2]
Conditions	excess molar enthalpy [kcal/mol]
x2 = 0.0389	-0.0194 ± 0.000669
x2 = 0.0748	-0.039 ± 0.00098
x2 = 0.1082	-0.0531 ± 0.00122
x2 = 0.1392	-0.0645 ± 0.00141
x2 = 0.1921	-0.0847 ± 0.00174
x2 = 0.2444	-0.0962 ± 0.00196
x2 = 0.3267	-0.104 ± 0.00208
x2 = 0.3928	-0.101 ± 0.00203
x2 = 0.4925	-0.0926 ± 0.00189
x2 = 0.5929	-0.0788 ± 0.00165
x2 = 0.66	-0.0691 ± 0.00148
x2 = 0.7444	-0.0543 ± 0.00124
x2 = 0.7952	-0.0446 ± 0.00108
x2 = 0.8535	-0.0323 ± 0.00086
x2 = 0.8859	-0.0234 ± 0.000741
x2 = 0.9209	-0.0155 ± 0.000621
x2 = 0.9588	-0.00719 ± 0.000478

OCCO [1,2-ethanediol] + C[S+](C)[O-]
[2]
Conditions	excess molar enthalpy [kcal/mol]
x1 = 0.0506	-0.0466 ± 0.0011
x1 = 0.0963	-0.0878 ± 0.00182
x1 = 0.1378	-0.119 ± 0.00234
x1 = 0.1757	-0.147 ± 0.00287
x1 = 0.2423	-0.181 ± 0.00335
x1 = 0.2989	-0.203 ± 0.00382
x1 = 0.39	-0.219 ± 0.00406
x1 = 0.4601	-0.218 ± 0.00406
x1 = 0.5612	-0.198 ± 0.00359
x1 = 0.6574	-0.169 ± 0.00311
x1 = 0.7189	-0.147 ± 0.00287
x1 = 0.7933	-0.118 ± 0.00234
x1 = 0.8365	-0.0991 ± 0.00201
x1 = 0.8847	-0.0728 ± 0.00155
x1 = 0.911	-0.0595 ± 0.00131
x1 = 0.9388	-0.044 ± 0.00105
x1 = 0.9685	-0.0237 ± 0.000741
